Here are results for 13 molecules from patent publication US12304894B2, “Derivatives of adamantyl oxadiazoles and pharmaceutically acceptable solvates, hydrates and salts thereof, pharmaceutical composition comprising same, synthesis method, suitable for use as effective and selective inhibitors of the reductase activity of the enzyme 11-beta dehydrogenase type 1 …” (PONTIFICIA UNIVERSIDAD CATOLICA DE CHILE, priority 2019, dated 2025).

pIC50: −log10 of the molar value.

Common to all, as to format: biochemical
The target of test [1] is T1, recombinant 11β-HSD1 enzyme (Homo sapiens (Human), UniProt P28845). Put plainly: 11β-HSD1 reductase activity (HTRF Cortisol Kit). The following applies: 266 nM cortisone, 333 μM NADPH, read-out: 11b-HSD1 reductase (HTRF) IC50. How it is done: Determination of 11β-HSD1 Reductase Activity
T1 sequence (P28845 whole entry): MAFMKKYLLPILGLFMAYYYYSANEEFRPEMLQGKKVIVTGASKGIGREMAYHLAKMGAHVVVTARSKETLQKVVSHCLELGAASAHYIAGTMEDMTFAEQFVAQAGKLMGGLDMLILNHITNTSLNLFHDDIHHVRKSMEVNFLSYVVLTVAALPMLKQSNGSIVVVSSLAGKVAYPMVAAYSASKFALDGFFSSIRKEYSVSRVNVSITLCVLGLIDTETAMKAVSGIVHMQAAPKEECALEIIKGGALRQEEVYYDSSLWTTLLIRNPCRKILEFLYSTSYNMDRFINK
First, stock solutions of the compounds were prepared in DMSO at a concentration of […], of which serial dilutions were made in order to determine the efficacy curve.
As for the recombinant 11β-HSD1 enzyme (Cayman Chemical, MI, USA; Item No. 10007815), it was prepared in Tris Buffer 20 mM EDTA 5 mM pH 6.0 (Tris buffer) at different dilutions.
Initially, the enzyme concentration to be used in the assays in order to evaluate the biological activity of the compounds was determined. The Cortisol Kit product (Cisbio, MA, USA; Cat no. 62CRTPEG) was used for that purpose.
The protocol consisted of preparing the reaction buffer, adding 266 nM cortisone and 333 μM NADPH in Tris buffer. Then, this reaction buffer is added to the wells of the HTRF (Homogeneous Time Resolved Fluorescence) reaction plate together with the enzyme in a 4:1 ratio respectively, and incubated for 2 hours at 37° C. In the case of the control wells, two wells with Tris buffer were added, without compounds.
After the incubation time, the reagents of the Cortisol kit were added, Cortisol d2 and Cortisol cryptate in sample ratio, Cortisol d2 and cortisol cryptate 2:1:1, in a quantity according to the size of the well as indicated by the supplier (for the negative control of the kit, the cortisol d2 is replaced by the kit's reconstitution buffer). This reaction is incubated for 1 hour at room temperature in order to later read the fluorescence at 665 and 620 nm.
Once the enzyme concentration to be used has been determined, the cortisol kit protocol is continued to determine the efficacy curve for the compounds. As previously done, a plate for HTRF was prepared adding to each well of the reaction buffer, the recombinant 11β-HSD1 enzyme and the compounds to be assayed in a 3:1:1 ratio, respectively. The plate was subsequently incubated at 37° C. for 2 hours.
After the incubation time, the reagents of the cortisol kit, cortisol d2 and cortisol cryptate, are added, and were incubated again for 1 hour at room temperature. Finally, the fluorescence of each well was determined at 665 and 620 nm.

Test [2] concerns the target T1, recombinant 11β-HSD1 enzyme. The experiment in a line: 11β-HSD1 oxidase activity (HTRF Cortisol Kit). The following applies: for 11b-HSD1 oxidase (activ rem %) 100 nM: remaining activity at 100 nM compound; for 11b-HSD1 oxidase (activ rem %) 100 uM: remaining activity at 100 uM compound. How it is done:
Determination of 11β-HSD1 Oxidase Activity
The Cortisol Kit (Cisbio) product was used for that purpose.
For the analysis, the compounds are reconstituted in DMSO in a stock of 10 mM concentration, from which serial dilutions were prepared for the efficiency curve.
The recombinant 11β-HSD1 enzyme dilutions were prepared in 20 mM Tris Buffer 5 mM EDTA pH 6.0 (Tris buffer).
Initially, the enzyme concentration to be used was determined. For this purpose, a plate for HRTF was prepared with Tris buffer with 100 nM cortisol and 200 μM NADP+, including in the wells of the plate for HTRF together with the enzyme in a 4:1 ratio, respectively, and incubated for 2 hours at 37° C. After this time, the reagents of the Cortisol kit, Cortisol d2 and Cortisol cryptate in sample ratio, Cortisol d2 and cortisol cryptate 2:1:1 were added, incubating this new reaction for 1 hour at room temperature. Subsequently, the fluorescence was determined at 665 and 620 nm.
An HRTF plate was again prepared, where the reaction buffer, the recombinant 11β-HSD1 enzyme and the compound were added in each well in a 3:1:1 ratio, respectively. The plate was incubated at 37° C. for 2 hours. After the incubation time, the reagents of the cortisol kit, cortisol d2 and cortisol cryptate, were added as indicated above. They were then incubated at room temperature for 1 hour to finally read the fluorescence at 665 and 620 nm.
Background: Time-resolved FRET reads energy transfer from a long-lived donor to a nearby acceptor.

Another test deals with 11β-HSD2. Put plainly: 11β-HSD2 oxidase activity in human hepatic microsomes (HTRF Cortisol Kit). Conditions: remaining activity at 100 nM compound. On the procedure: Determination of 11β-HSD2 Oxidase Activity
The concentration of cortisone produced in the reaction, with and without the compounds, was determined using the Cortisol Kit (Cisbio) product in order to evaluate the 11β-HSD2 oxidase activity.
As in the previous assays, the compounds are reconstituted in DMSO to 10 mM stock, in order to subsequently make serial dilutions to determine the efficacy curve.
To perform the assay, the HTRF plate was prepared containing Tris buffer, 100 nM cortisol and 200 μM NAD^+. Enzyme is added to the corresponding wells in a 4:1 ratio, respectively, and incubated for 2 hours at 37° C. For the kit control, two wells are added only with Tris buffer.
After the incubation time, the reagents of the Cortisol kit, Cortisol d2 and Cortisol cryptate, in a sample ratio, Cortisol d2 and cortisol cryptate 2:1:1 are added. For the negative control, cortisol d2 was replaced in some wells by the kit's reconstitution buffer. The plate was incubated for 1 hour at room temperature to later read at 665 and 620 nm.
For this purpose, the reaction buffer was prepared and subsequently, in a plate for HTRF, the reaction buffer, the microsomes in a concentration of 5 mg/mL and the compound in a ratio of 3:1:1, respectively, were added to each well. In the case of reaction controls, the reaction buffer without cortisol and without compound is included for the negative control. For the positive control, no compound is added, and for the kit controls, only the reaction buffer is added to the negative and positive control wells.
After incubating the plate for 2 hours, the reagents of the cortisol kit, cortisol d2 and cortisol cryptate, are added to the corresponding wells as indicated above. They are then incubated at room temperature for 1 hour to finally read the 665 and 620 nm fluorescence.

As for `COc1cccc(CCc2nc(C34CC5CC(CC(C5)C3)C4)no2)c1` [BD-38, 1-(3-methoxyphenyl)-2-(3-adamantyl-1,2,4-oxadiazol-5-yl)ethane], the negative logarithm of the IC50 (pIC50) (in general, the negative decadic logarithm of the IC50, by convention in mol/L) in test [1] is 6.99. Besides, in test [2], the “11b-HSD1 oxidase (activ rem %) 100 nM” value came to 88.1% and the “11b-HSD1 oxidase (activ rem %) 100 uM” value stood at 100.5%. Further, the “11b-HSD2 oxidase (activ rem %) Microcosms 100 nM” value in the test on 11β-HSD2 came out at 61.9%.

In the case of `Cc1ccc(CCc2nc(C34CC5CC(CC(C5)C3)C4)no2)cc1` [BD-36, 1-(4-methylphenyl)-2-(3-adamantyl-1,2,4-oxadiazol-5-yl)ethane], the pIC50 in test [1] is 6.99. In test [2], the “11b-HSD1 oxidase (activ rem %) 100 nM” value is on record as 110.3% and the “11b-HSD1 oxidase (activ rem %) 100 uM” value was determined as 95.3%. For the same molecule, the “11b-HSD2 oxidase (activ rem %) Microcosms 100 nM” value with 11β-HSD2 turned out to be 40.1%.

On to `COc1ccc(CCc2nc(C34CC5CC(CC(C5)C3)C4)no2)cc1` [BD-32, 1-(4-methoxyphenyl)-2-(3-adamantyl-1,2,4-oxadiazol-5-yl)ethane], for which the pIC50 in test [1] was 7.02. Further, in test [2], the “11b-HSD1 oxidase (activ rem %) 100 nM” value is reported as 104.1% and the “11b-HSD1 oxidase (activ rem %) 100 uM” value worked out at 62.7%. Besides, the “11b-HSD2 oxidase (activ rem %) Microcosms 100 nM” value with 11β-HSD2 stood at 60.0%.

As for `c1ccc(CCc2nc(C34CC5CC(CC(C5)C3)C4)no2)nc1` [BD-45, 1-(2-pyridyl)-2-(3-adamantyl-1,2,4-oxadiazol-5-yl)ethane], in test [1], the pIC50 was 8.96. Moreover, the “11b-HSD1 oxidase (activ rem %) 100 nM” value in test [2] stood at 97.4%. Also, the “11b-HSD2 oxidase (activ rem %) Microcosms 100 nM” value in the test with 11β-HSD2 is 70.2%.

Regarding `Fc1cccc(CCc2nc(C34CC5CC(CC(C5)C3)C4)no2)c1` [BD-42, 1-(3-fluorophenyl)-2-(3-adamantyl-1,2,4-oxadiazol-5-yl)ethane], in test [1], the negative logarithm of the IC50 (pIC50) was 7.04. Also, in test [2], the “11b-HSD1 oxidase (activ rem %) 100 nM” value is listed as 83.0% and the “11b-HSD1 oxidase (activ rem %) 100 uM” value is on record as 89.8%. Also, the “11b-HSD2 oxidase (activ rem %) Microcosms 100 nM” value in the test on 11β-HSD2 is 59.2%.

Turning to `Oc1ccc(CCc2nc(C34CC5CC(CC(C5)C3)C4)no2)cc1` [BD-37, 1-(4-hydroxyphenyl)-2-(3-adamantyl-1,2,4-oxadiazol-5-yl)ethane], the pIC50 in test [1] is 8.96. For the same molecule, in test [2], the “11b-HSD1 oxidase (activ rem %) 100 nM” value came out at 109.6% and the “11b-HSD1 oxidase (activ rem %) 100 uM” value is given as 88.1%. Further, the “11b-HSD2 oxidase (activ rem %) Microcosms 100 nM” value in the test on 11β-HSD2 turned out to be 58.3%.

On to `c1ccc(CCc2nc(C34CC5CC(CC(C5)C3)C4)no2)cc1` [BD-31, 1-phenyl-2-(3-adamantyl-1,2,4-oxadiazol-5-yl)ethane], for which, in test [1], the negative logarithm of the IC50 (pIC50) was 6.83. In test [2], the “11b-HSD1 oxidase (activ rem %) 100 nM” value is recorded as 86.1% and the “11b-HSD1 oxidase (activ rem %) 100 uM” value turned out to be 86.20%. In the test with 11β-HSD2, the “11b-HSD2 oxidase (activ rem %) Microcosms 100 nM” value is given as 55.4%.

Regarding `Brc1ccc(CCc2nc(C34CC5CC(CC(C5)C3)C4)no2)cc1` [BD-35, 1-(4-bromophenyl)-2-(3-adamantyl-1,2,4-oxadiazol-5-yl)ethane], the negative-log IC50 (pIC50) in test [1] is 8.00. In test [2], the “11b-HSD1 oxidase (activ rem %) 100 nM” value came to 91.3% and the “11b-HSD1 oxidase (activ rem %) 100 uM” value worked out at 104.0%. Also, the “11b-HSD2 oxidase (activ rem %) Microcosms 100 nM” value with 11β-HSD2 was 79.5%.

In the case of `c1cc(CCc2nc(C34CC5CC(CC(C5)C3)C4)no2)ccn1` [BD-39, 1-(4-pyridyl)-2-(3-adamantyl-1,2,4-oxadiazol-5-yl)ethane], the pIC50 in test [1] was 7.01. For the same molecule, in test [2], the “11b-HSD1 oxidase (activ rem %) 100 nM” value amounted to 89.4% and the “11b-HSD1 oxidase (activ rem %) 100 uM” value was 75.3%. The “11b-HSD2 oxidase (activ rem %) Microcosms 100 nM” value with 11β-HSD2 is listed as 59.2%.

Consider `CC(C)(C)c1ccc(CCc2nc(C34CC5CC(CC(C5)C3)C4)no2)cc1` [BD-41, 1-(4-tert-butylphenyl)-2-(3-adamantyl-1,2,4-oxadiazol-5-yl)ethane], for which the negative-log IC50 (pIC50) in test [1] was 6.99. In test [2], the “11b-HSD1 oxidase (activ rem %) 100 nM” value amounted to 85.9% and the “11b-HSD1 oxidase (activ rem %) 100 uM” value turned out to be 86.1%. Further, in the test on 11β-HSD2, the “11b-HSD2 oxidase (activ rem %) Microcosms 100 nM” value worked out at 49.7%.

As to `Clc1ccc(CCc2nc(C34CC5CC(CC(C5)C3)C4)no2)cc1` [BD-33, 1-(4-chlorophenyl)-2-(3-adamantyl-1,2,4-oxadiazol-5-yl)ethane], the pIC50 in test [1] is 8.04. In test [2], the “11b-HSD1 oxidase (activ rem %) 100 nM” value is on record as 107.0% and the “11b-HSD1 oxidase (activ rem %) 100 uM” value was found to be 75.4%. Moreover, in the test on 11β-HSD2, the “11b-HSD2 oxidase (activ rem %) Microcosms 100 nM” value worked out at 59.4%.

`O=[N+]([O-])c1ccc(CCc2nc(C34CC5CC(CC(C5)C3)C4)no2)cc1` [BD-46, 1-(4-nitrophenyl)-2-(3-adamantyl-1,2,4-oxadiazol-5-yl)ethane]: the pIC50 in test [1] was 7.62. Moreover, in test [2], the “11b-HSD1 oxidase (activ rem %) 100 nM” value stood at 104.6% and the “11b-HSD1 oxidase (activ rem %) 100 uM” value came to 65.4%. In addition, in the test on 11β-HSD2, the “11b-HSD2 oxidase (activ rem %) Microcosms 100 nM” value is reported as 62.0%.

Turning to `Fc1ccc(CCc2nc(C34CC5CC(CC(C5)C3)C4)no2)cc1` [BD-34, 1-(4-fluorophenyl)-2-(3-adamantyl-1,2,4-oxadiazol-5-yl)ethane], the negative-log IC50 (pIC50) in test [1] was 6.98. For the same molecule, in test [2], the “11b-HSD1 oxidase (activ rem %) 100 nM” value turned out to be 109.0% and the “11b-HSD1 oxidase (activ rem %) 100 uM” value was determined as 77.2%. Moreover, the “11b-HSD2 oxidase (activ rem %) Microcosms 100 nM” value in the test on 11β-HSD2 is listed as 68.8%.
